# Reference: ChEMBL document CHEMBL1201862, “PubChem BioAssay data set” (2004)
#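 Values below derive from 48-hour exposures of cells grown in 96-well plates, with endpoints linearly interpolated between the two concentrations bracketing the appropriate inhibition level. GI50 = concentration required for 50% inhibition of growth.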 The source made the active and inactive calls. Rule as the data show it: active = GI50 up to about 1.1 µM and inactive = higher.
# What was measured:
# Assay in all cases: NCI tumour cell line growth inhibition, 48 h
# HOP-62 = tested on: HOP-62
# MDA-N = tested on: MDA-N
# KM12 = tested on: KM12
# DU-145 = tested on: DU-145
# HL-60 = tested on: HL-60
# SF-268 = tested on: SF-268
# LOX IMVI = tested on: LOX IMVI
# IGROV-1 = tested on: IGROV-1
# NCI/ADR-RES = tested on: NCI/ADR-RES
# SK-MEL-28 = tested on: SK-MEL-28
# HT-29 = tested on: HT-29
# COLO 205 = tested on: COLO 205
# 786-0 = tested on: 786-0
# K562 = tested on: K562
# NCI-H226 = tested on: NCI-H226
# NCI-H23 = tested on: NCI-H23
# SNB-19 = tested on: SNB-19
# CAKI-1 = tested on: CAKI-1
# HCT-15 = tested on: HCT-15
# HOP-92 = tested on: HOP-92
SMILES,GI50 (HOP-62),GI50 (MDA-N),GI50 (KM12),GI50 (DU-145),GI50 (HL-60),GI50 (SF-268),GI50 (LOX IMVI),GI50 (IGROV-1),GI50 (NCI/ADR-RES),GI50 (SK-MEL-28),GI50 (HT-29),GI50 (COLO 205),GI50 (786-0),GI50 (K562),GI50 (NCI-H226),GI50 (NCI-H23),GI50 (SNB-19),GI50 (CAKI-1),GI50 (HCT-15) [µM],GI50 (HOP-92)
CC1=Nc2sc3c(c2C2=NCCN12)CCCC3,40.6 µM (inactive),22.3 µM (inactive),16.8 µM (inactive),30.5 µM (inactive),22.8 µM (inactive),52.2 µM (inactive),17.6 µM (inactive),18.3 µM (inactive),14.8 µM (inactive),28.6 µM (inactive),18.6 µM (inactive),32.3 µM (inactive),21.8 µM (inactive),23.6 µM (inactive),15.1 µM (inactive),18.7 µM (inactive),39.6 µM (inactive),22.9 µM (inactive),29.9,–
COC(=O)c1cc(/C=C2\Cc3cc4c(cc3C2=O)CCC4)cc2c1CCC2,> 100 µM (inactive),> 100 µM (inactive),> 100 µM (inactive),> 100 µM (inactive),> 100 µM (inactive),> 100 µM (inactive),> 100 µM (inactive),> 100 µM (inactive),> 100 µM (inactive),> 100 µM (inactive),> 100 µM (inactive),> 100 µM (inactive),> 100 µM (inactive),> 100 µM (inactive),> 100 µM (inactive),> 100 µM (inactive),> 100 µM (inactive),> 100 µM (inactive),> 100,–
CCCCCCCCCCOc1ccc(/N=N/c2nnc(-c3ccc(OCCCCC)cc3)s2)cc1,> 100 µM (inactive),> 100 µM (inactive),62.4 µM (inactive),> 100 µM (inactive),–,> 100 µM (inactive),> 100 µM (inactive),> 100 µM (inactive),> 100 µM (inactive),> 100 µM (inactive),> 100 µM (inactive),> 100 µM (inactive),> 100 µM (inactive),> 100 µM (inactive),–,> 100 µM (inactive),> 100 µM (inactive),> 100 µM (inactive),> 100,> 100 µM (inactive)
O=c1[nH]c(=O)n(C2CC(O)C(CO)O2)cc1OCCCc1ccccc1 (configuration not stated),> 100 µM (inactive),> 100 µM (inactive),> 100 µM (inactive),> 100 µM (inactive),> 100 µM (inactive),> 100 µM (inactive),> 100 µM (inactive),> 100 µM (inactive),> 100 µM (inactive),> 100 µM (inactive),> 100 µM (inactive),> 100 µM (inactive),> 100 µM (inactive),> 100 µM (inactive),> 100 µM (inactive),> 100 µM (inactive),> 100 µM (inactive),> 100 µM (inactive),> 100,–
Cc1ccc2c(=O)c(-c3nnc(N)s3)c[nH]c2n1,18.6 µM (inactive),> 100 µM (inactive),> 100 µM (inactive),> 100 µM (inactive),> 100 µM (inactive),36.3 µM (inactive),> 100 µM (inactive),> 100 µM (inactive),> 100 µM (inactive),> 100 µM (inactive),> 100 µM (inactive),> 100 µM (inactive),55.2 µM (inactive),> 100 µM (inactive),71.4 µM (inactive),> 100 µM (inactive),> 100 µM (inactive),> 100 µM (inactive),> 100,–
Oc1ccc[n+](Cc2ccccc2)c1,> 100 µM (inactive),> 100 µM (inactive),> 100 µM (inactive),> 100 µM (inactive),> 100 µM (inactive),> 100 µM (inactive),> 100 µM (inactive),–,> 100 µM (inactive),> 100 µM (inactive),> 100 µM (inactive),> 100 µM (inactive),> 100 µM (inactive),> 100 µM (inactive),> 100 µM (inactive),> 100 µM (inactive),> 100 µM (inactive),> 100 µM (inactive),> 100,–
